Results published in article PMC8466373, “Plant-Derived and Dietary Hydroxybenzoic Acids—A Comprehensive Study of Structural, Anti-/Pro-Oxidant, Lipophilic, Antimicrobial, and Cytotoxic Activity in MDA-MB-231 and MCF-7 Cell Lines” (Nutrients, 2021).
Values after ≈ are worked out from the molar mass of the structure shown. Values joined by “and” are separate entries in the source; they are usually repeats but may differ in a detail not shown here. Equal values may be shown once. Read-outs that look alike come from different tables or passages of the source. Marks after values point to notes of the source that are not given here.

Key:
DPPH assay = assay type: biochemical; details: methanolic solutions, 60 min of reaction time
Procedure: DPPH assay was measured according to the method described by Rice-Evans. Appropriate volumes of methanolic solutions of the tested hydroxybenzoic acids (C = 30 μM) were mixed with methanol in test tubes to prepare a series of solutions of various concentrations (final volume 1 mL). Then, 2 mL of methanolic solution of DPPH^• (C = 60 μM) was added to each tube; the control contained methanol instead of the sample. The tubes with reaction mixtures were capped, vortexed, and left to stand for 60 min at 23 °C in the dark. The absorbance of the solutions was measured by the use of a Cary 5000 UV–Vis spectrophotometer (Santa Clara, CA, USA) at λ = 516 nm against pure methanol. […] The concentration of the tested hydroxybenzoic acids was plotted against the %I, and the IC50 values (antioxidant concentration that inhibited 50% of DPPH^• radicals) were calculated from the obtained scavenging curves.

[1] = ref 102; cited from earlier work
[2] = FRAP assay (ferric-reducing antioxidant power); assay type: biochemical; design: key: (-): Negative values were obtained for these acids; details: concentration of 50 μM, methanolic solutions
Procedure: FRAP assay was carried out as described in [42]. […] After 8 min of incubation at 23 °C, the absorbance at 595 nm was measured against the blank (containing 0.4 mL of methanol instead of the sample). Ferric-reducing antioxidant activity was expressed as Fe(II) ion equivalents (μM) using the calibration curve obtained for FeSO4 (the standard curve equation: y = 3.4303x − 0.1058; R^2 = 0.9984).

[3] = CABTS = 7 mM, cited from earlier work; for inhibition: C = 10 μM, t = 7 min, read-out: ABTS radical scavenging activity (%); for IC50: t = 6 min, read-out: ABTS, IC50
[4] = system: Salmonella enteritidis (NCTC 4776); experiment: MIC by serial dilution in agar medium; assay type: cell-based; details: Salmonella enterica
Procedure: (§1) The following bacterial strains were used in this study: Escherichia coli (PCM 2857), Pseudomonas aeruginosa (PCM 2720), Bacillus subtilis (PCM 2850), Staphylococcus aureus (PCM 2267), Salmonella enteritidis (NCTC 4776), and Candida albicans (PCM 2566-FY). The microbial strains were bought from the Polish Collection of Microorganisms (Wroclaw, Poland) or the American Type Culture Collection.
(§2) The MIC (minimal inhibitory concentration) was determined by serial dilution of the tested compound in an agar medium, to which the appropriate inoculum of microorganisms was then added and incubated. Escherichia coli, Pseudomonas aeruginosa, Staphylococcus aureus, Bacillus subtilis, Salmonella enteritidis, and Candida albicans were grown overnight and then resuspended in physiological saline to an optical density at 600 nm (OD = 600) of 0.60, corresponding to 5.0 × 10^8 CFU/mL. Bacteria (0.1 mL of the reconstituted suspension) were seeded onto sterile Mueller–Hinton agar plates, to which previously suitable amounts of the tested compounds were added to reach the desired concentration. Tested chemicals were dissolved in DMSO solution. Negative controls were agar plates, to which DMSO was added, while positive controls were plates with gentamycin (in the case of bacteria) or flucanozole (in the case of fungi). The plates were incubated at 37 °C for 24 h. The lowest concentration without visible bacterial growth was determined as the MIC.

[5] = system: Bacillus subtilis (PCM 2850); experiment: MIC by serial dilution in agar medium; assay type: cell-based
Procedure: as §1, with “Collection. Bacteria (0.1 mL of the reconstituted suspension) were seeded onto sterile Mueller–Hinton agar plates (Biomaxima), to which previously suitable amounts of the tested compounds were added to give the desired concentration.” for “Collection.”
as §2

[6] = system: Pseudomonas aeruginosa (PCM 2720); experiment: MIC by serial dilution in agar medium; assay type: cell-based
Procedure: as §1, with “Collection. Bacteria (0.1 mL of the reconstituted suspension) were seeded onto sterile Mueller–Hinton agar plates (Biomaxima), to which previously suitable amounts of the tested compounds were added to give the desired concentration.” for “Collection.”
as §2

[7] = system: Staphylococcus aureus (PCM 2267); experiment: MIC by serial dilution in agar medium; assay type: cell-based
Procedure: as §1, with “Collection. Bacteria (0.1 mL of the reconstituted suspension) were seeded onto sterile Mueller–Hinton agar plates (Biomaxima), to which previously suitable amounts of the tested compounds were added to give the desired concentration.” for “Collection.”
as §2

[8] = system: Candida albicans (PCM 2566-FY); experiment: MIC by serial dilution in agar medium; assay type: cell-based
Procedure: as §1, with “Collection. Bacteria (0.1 mL of the reconstituted suspension) were seeded onto sterile Mueller–Hinton agar plates (Biomaxima), to which previously suitable amounts of the tested compounds were added to give the desired concentration.” for “Collection.”
as §2

[9] = system: Escherichia coli (PCM 2857); experiment: MIC by serial dilution in agar medium; assay type: cell-based
Procedure: as §1, with “Collection. Bacteria (0.1 mL of the reconstituted suspension) were seeded onto sterile Mueller–Hinton agar plates (Biomaxima), to which previously suitable amounts of the tested compounds were added to give the desired concentration.” for “Collection.”
as §2

ABTS assay = assay type: biochemical; details: 50 μM, methanolic solutions, 7 min of reaction time
Procedure: ABTS assay was conducted according to the procedure of Re et al.. […] The absorbance of the solutions was measured with a UV–Vis spectrophotometer at 734 nm against methanol (the blank). The ability to scavenge ABTS^•+ cation radicals was expressed as the %I of ABTS^•+ and calculated according to the aforementioned equation.

MCF-7 cells = experiment: Cytotoxicity, neutral red (NR) assay; assay type: cell-based, human; details: for Cytotoxicity (mM) in Cell Line MCF-7, IC50: 48 h treatment, neutral red assay
Procedure: (§3) Briefly, MCF-7 cells were cultured in EMEM (Biological Industries, Israel) medium supplemented with 10% fetal calf serum (Gibco). MDA-MB-231 cells were cultured in Leibovitz‘s L15 (Biological Industries, Beit HaEmek, Israel) medium supplemented with 10% fetal calf serum (Gibco). The MCF-7 cells were incubated in a 5% CO2 atmosphere at 37 °C, whereas the MDA-231 cells were incubated in a 100% air atmosphere at 37 °C.
(§4) Cytotoxicity evaluation was conducted to assess the impact of hydroxybenzoic acids on the proliferation of MCF-7 and MDA-MB-231 cells, which was measured via neutral red (NR) assay. In brief, cells were seeded in 96-well microplates (TPP, Switzerland) at a density of 2 × 10^4 cells/well in 100 μL of culture medium. At least three independent experiments in six replicate wells were conducted per concentration. Twenty-four hours after cell seeding, cells were treated with increasing concentrations of hydroxybenzoic acids (0.02–5 mM) for forty-eight hours. After treatment, cells were incubated for 3 h at 37 °C with 100 µL of neutral red solution (stock solution of NR) (Sigma-Aldrich), and then 5 mg/mL of PBS was diluted 1:100 in cell culture medium, incubated for 12 h at 37 °C, and centrifuged to remove any undissolved NR powder. […] After 15 min of gentle shaking, optical density was read at 540 nm with an Infinite M200 plate reader spectrophotometer (Tecan, Austria).

MDA-MB-231 cells = experiment: Cytotoxicity, neutral red (NR) assay; assay type: cell-based, human; details: for Cytotoxicity (mM) in Cell Line MDA-MB-231, IC50: 48 h treatment, neutral red assay
Procedure: as §3, §4

[10] = Cytotoxicity, neutral red (NR) assay; assay type: cell-based, human; details: human, 48 h treatment, neutral red assay
Procedure: as §3, §4

[11] = read-out: Cytotoxicity (mM) in Cell Line MCF-7, IC50
[12] = read-out: Cytotoxicity (mM) in Cell Line MDA-MB-231, IC50
[13] = Salmonella enteritidis, read-out: MIC
[14] = MCF-7 cells (breast adenocarcinoma), read-out: Cytotoxicity (mM) in Cell Line MCF-7, IC50
[15] = MDA-MB-231 cells (breast adenocarcinoma), read-out: Cytotoxicity (mM) in Cell Line MDA-MB-231, IC50

| Compound | IC50 (DPPH assay) [µM] | LogPexp. [1] | FRAP [2] | inhibition [3] [%] | IC50 ([3]; ref 68) [µM] | IC50 ([3]; ref 73) [µM] | Inhibition of ABTS•+ radicals (%I) (ABTS assay) [%] | Cytotoxicity (mM) in Cell Line MCF-7, IC50 (MCF-7 cells) | Cytotoxicity (mM) in Cell Line MDA-MB-231, IC50 (MDA-MB-231 cells) | IC50 at 48 h [10, 11] [mM] | IC50 at 48 h [10, 12] [mM] | MIC [4, 13] [µg/mL] | MIC ([5]; read-out: MIC) [µg/mL] | MIC ([6]; read-out: MIC) [µg/mL] | MIC ([7]; read-out: MIC) [µg/mL] | MIC ([8]; read-out: MIC) [µg/mL] | MIC ([9]; read-out: MIC) [µg/mL] | IC50 at 48 h [10, 14] [mM] | IC50 at 48 h [10, 15] [mM] | also measured |
| --- | --- | --- | --- | --- | --- | --- | --- | --- | --- | --- | --- | --- | --- | --- | --- | --- | --- | --- | --- | --- |
| O=C(O)c1ccc(O)c(O)c1 [3,4-DHB, 3,4-dihydroxybenzoic acid] | 5.24 ± 0.95 | 0.86 [102] | 44.22 µM Fe^2+ and 44.22 ± 9.38 µM Fe^2+ | ~38 | 10.1 | 20.7 | 74.51 | nontoxic | nontoxic | > 5 | > 5 | – | – | – | – | – | – | – | – | MIC [4]: 2000 µg/mL (≈ 13 mM); MIC [5]: 2000 µg/mL (≈ 13 mM); MIC [6]: 2000 µg/mL (≈ 13 mM); MIC [7]: 2000 µg/mL (≈ 13 mM); MIC [8]: 2000 µg/mL (≈ 13 mM); MIC [9]: 2000 µg/mL (≈ 13 mM) |
| O=C(O)c1cccc(O)c1O [2,3-DHB, 2,3-Dihydroxybenzoic acid] | 5.86 ± 0.64 | 1.20 [102] | 173.79 µM Fe^2+ and 173.79 ± 39.06 µM Fe^2+ | – | – | 10.7 | 86.40 | – | – | – | – | 5000 (≈ 32.4 mM) | 5000 (≈ 32.4 mM) | 5000 (≈ 32.4 mM) | 5000 (≈ 32.4 mM) | 5000 (≈ 32.4 mM) | 5000 (≈ 32.4 mM) | > 5 | 4.1 | – |
| O=C(O)c1cc(O)cc(O)c1 [3,5-DHB, 3,5-dihydroxybenzoic acid] | > 1000 | 0.86 [102] | (-) * | – | – | 41.9 | 60.39 | nontoxic | nontoxic | – | – | 2000 (≈ 13 mM) | 2000 (≈ 13 mM) | 3000 (≈ 19.5 mM) | 2000 (≈ 13 mM) | 2000 (≈ 13 mM) | 2000 (≈ 13 mM) | > 5 | > 5 | – |
| O=C(O)c1cc(O)ccc1O [2,5-DHB, 2,5-dihydroxybenzoic acid] | 4.99 ± 0.79 | – | 236.00 µM Fe^2+ and 236.00 ± 6.31 µM Fe^2+ | – | ~6.5 | 15.6 | 80.11 | – | – | – | – | 3000 (≈ 19.5 mM) | 3000 (≈ 19.5 mM) | 5000 (≈ 32.4 mM) | 5000 (≈ 32.4 mM) | 5000 (≈ 32.4 mM) | 3000 (≈ 19.5 mM) | > 5 | 4.39 | – |
| O=C(O)c1cc(O)c(O)c(O)c1 [3,4,5-THB, 3,4,5-trihydroxybenzoic acid] | 2.42 ± 0.08 | 0.70 [102] | 158.10 µM Fe^2+ and 158.10 ± 14.81 µM Fe^2+ | ~80 | – | 4.33 | 79.50 | – | – | 0.44 | 0.36 | – | 3000 (≈ 17.6 mM) | 4000 (≈ 23.5 mM) | 6000 (≈ 35.3 mM) | 3000 (≈ 17.6 mM) | 3000 (≈ 17.6 mM) | – | – | inhibition of growth of MCF-7 cells (MCF-7 cells; concentration of 5 mM): almost completely; inhibition of growth of MDA-MB-231 cells (MDA-MB-231 cells; concentration of 5 mM): almost completely |
| O=C(O)c1c(O)cccc1O [2,6-DHB, 2,6-dihydroxybenzoic acid] | 209 ± 0.98 | 2.20 [102] | (-) * | – | – | – | 8.12 | – | – | – | – | 3000 (≈ 19.5 mM) | 3000 (≈ 19.5 mM) | 4000 (≈ 26 mM) | 5000 (≈ 32.4 mM) | 3000 (≈ 19.5 mM) | 3000 (≈ 19.5 mM) | > 5 | 3.97 | – |
